The values below come from ChEMBL document CHEMBL3817805, “Benzamide capped peptidomimetics as non-ATP competitive inhibitors of CDK2 using the REPLACE strategy” (Bioorg Med Chem Lett, 2016).

The target of one assay is CDK2/Cyclin A2 (Homo sapiens, UniProt P24941). Briefly: Inhibition of recombinant human CDK2/cyclin A2 using fluoresceinyl-Ahx-Pro-Val-Lys-Arg-Arg-Leu-Phe-Gly as substrate incubated for 45 mins by fluorescence polarization assay. The class given is protein-complex assay.
Assay [1] concerns the target Cyclin-dependent kinase 4/cyclin D1 (Homo sapiens, UniProt P24385). As to the kind of experiment: Inhibition of recombinant human CDK4/cyclin D1 using fluoresceinyl-AhxPro-Val-Lys-Arg-Arg-Leu-(3ClPhe)-Gly as substrate incubated for 45 mins by fluorescence polarization assay. The class given is protein-complex assay. In general terms: Polarisation of emitted light reports the rotation of a fluorescent probe.

The next assay deals with U2OS. As to the kind of experiment: Antiproliferative activity against human U2OS cells incubated for 72 hrs by MTT assay. The class given is functional, cell-based. For orientation: Tetrazolium dyes change colour on reduction, which living cells bring about.
Assay [2] can be described thus: Antiproliferative activity against human DU145 cells incubated for 72 hrs by MTT assay. The class given is functional, cell-based. Conditions: DU-145, 72 h.

Residues, ends and D or L forms follow the SMILES beside them.

Sequence of Cyclin-dependent kinase 4/cyclin D1 (P11802 whole entry): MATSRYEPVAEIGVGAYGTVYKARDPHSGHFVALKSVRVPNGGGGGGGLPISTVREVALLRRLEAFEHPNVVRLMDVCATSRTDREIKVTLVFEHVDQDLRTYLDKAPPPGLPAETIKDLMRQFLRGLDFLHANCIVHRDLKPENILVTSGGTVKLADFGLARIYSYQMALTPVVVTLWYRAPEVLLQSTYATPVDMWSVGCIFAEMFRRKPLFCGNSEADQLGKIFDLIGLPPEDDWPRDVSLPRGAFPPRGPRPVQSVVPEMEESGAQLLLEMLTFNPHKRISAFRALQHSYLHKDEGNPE
Sequence of Cyclin-dependent kinase 4/cyclin D1 (P24385 whole entry): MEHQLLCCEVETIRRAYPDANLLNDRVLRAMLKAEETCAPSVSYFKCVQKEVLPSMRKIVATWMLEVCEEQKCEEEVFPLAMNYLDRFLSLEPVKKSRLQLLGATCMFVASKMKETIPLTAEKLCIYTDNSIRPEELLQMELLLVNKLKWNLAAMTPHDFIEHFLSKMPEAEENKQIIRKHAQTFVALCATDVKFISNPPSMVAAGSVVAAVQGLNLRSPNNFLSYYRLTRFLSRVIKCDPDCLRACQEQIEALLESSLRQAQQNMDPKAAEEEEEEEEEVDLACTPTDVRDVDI

As a reminder, the IC50 is the concentration at which inhibition is half-maximal. As to `CC(C)CC(CC(=O)NC(Cc1ccsc1)C(N)=O)NC(=O)[C@H](CCCNC(=N)N)NC(=O)c1cc(OC2CCNCC2)cc(OC2CCNCC2)c1` (stereo partly drawn), the IC50 on CDK2/Cyclin A2 was more than 30 µM.

For the molecule `CC(C)CC(CC(=O)N(C)[C@@H](Cc1ccccc1)C(N)=O)NC(=O)[C@H](CCCNC(=N)N)NC(=O)c1ccc(CN2CCN(C3CCN(C)CC3)CC2)cc1` (stereo partly drawn), the IC50 came to 8.32 µM on CDK2/Cyclin A2 and 48.9 µM in assay [1].

For the molecule `CCOc1cc(C(=O)N[C@@H](CCCNC(=N)N)C(=O)NC(CC(=O)N(C)[C@@H](Cc2ccccc2)C(N)=O)CC(C)C)ccc1CN1CCNCC1` (stereo partly drawn), the IC50 at CDK2/Cyclin A2 is 22.6 µM; in assay [1] it was 18.6 µM.

With `CCCN1CCN(Cc2ccc(C(=O)N[C@@H](CCCNC(=N)N)C(=O)NC(CC(=O)NC(Cc3ccsc3)C(N)=O)CC(C)C)cc2)CC1` (stereo partly drawn), the IC50 at CDK2/Cyclin A2 worked out at 31.3 µM; in assay [1], 8.52 µM.

Consider `CC(C)C[C@H](NC(=O)[C@H](CCCNC(=N)N)NC(=O)c1ccc(CNC(=N)N)cc1)C(=O)N[C@@H](CC(N)=O)C(=O)N1CCC[C@@H]1C(=O)N[C@H](Cc1ccccc1)C(=O)N[C@@H](Cc1ccccc1)C(=O)O`, for which the IC50 at CDK2/Cyclin A2 was determined as 0.69 µM; in assay [1], 15.3 µM.

With `CC(C)CC(CC(=O)NC(Cc1ccsc1)C(N)=O)NC(=O)[C@H](CCCNC(=N)N)NC(=O)c1ccc(CN(C)C2CCNCC2)cc1` (stereo partly drawn), on CDK2/Cyclin A2, the concentration for half-maximal inhibition (IC50) is more than 50 µM.

For `CC(C)CC(CC(=O)N(C)[C@@H](Cc1ccccc1)C(N)=O)NC(=O)[C@H](CCCNC(=N)N)NC(=O)c1ccc(CN2CCNC[C@@H]2C)cc1` (stereo partly drawn), the IC50 on CDK2/Cyclin A2 was 13.4 µM; in assay [1], more than 100 µM; with U2OS, 229 µM; in assay [2], 204 µM.

As for `CCN1CCN(Cc2ccc(C(=O)N[C@@H](CCCNC(=N)N)C(=O)NC(CC(=O)NC(Cc3ccsc3)C(N)=O)CC(C)C)cc2)CC1` (stereo partly drawn), the values for the IC50 (on CDK2/Cyclin A2; in assay [1]) were 17.4 µM and 74.3 µM, respectively.

Regarding `CC(C)CC(CC(=O)N(C)[C@@H](Cc1ccccc1)C(N)=O)NC(=O)[C@H](CCCNC(=N)N)NC(=O)c1ccc(CN2CCNCC2)c(O)c1` (stereo partly drawn), the values for the IC50 (at CDK2/Cyclin A2; in assay [1]) were 7.42 µM and 11.8 µM, respectively.

As to `CC(C)CC(CC(=O)NC(Cc1ccsc1)C(N)=O)NC(=O)[C@H](CCCNC(=N)N)NC(=O)c1ccc(C=C2CCN(C)CC2)cc1` (stereo partly drawn), the half-maximal inhibitory concentration (IC50) at CDK2/Cyclin A2 was 26 µM; in assay [1], 69.9 µM.

In the case of `CC(C)C[C@H](NC(=O)[C@H](CCCNC(=N)N)NC(=O)c1ccc(CN2CCNCC2)cc1)C(=O)N[C@@H](CC(N)=O)C(=O)N1CCC[C@@H]1C(=O)N[C@H](Cc1ccccc1)C(=O)N[C@@H](Cc1ccccc1)C(=O)O`, the values for the IC50 (at CDK2/Cyclin A2; in assay [1]) were 5.3 µM and 12.9 µM, respectively.

Regarding `CCN1CCN(Cc2ccc(C(=O)N[C@@H](CCCNC(=N)N)C(=O)NC(CC(=O)NC(Cc3ccsc3)C(N)=O)CC(C)C)cc2)[C@@H](C)C1` (stereo partly drawn), the IC50 at CDK2/Cyclin A2 was 6.78 µM; in assay [1], 45.6 µM.

Consider `CC(C)CC(CC(=O)N(C)[C@@H](Cc1ccccc1)C(N)=O)NC(=O)[C@H](CCCNC(=N)N)NC(=O)c1ccc(CN2CCNC[C@H]2C)cc1` (stereo partly drawn), for which the IC50 on CDK2/Cyclin A2 came to 22.3 µM; in assay [1], 45.4 µM.

For `CC(C)CC(CC(=O)NC(Cc1ccsc1)C(N)=O)NC(=O)[C@H](CCCNC(=N)N)NC(=O)c1ccc(CC2CCNCC2)cc1` (stereo partly drawn), the 50% inhibitory concentration (IC50) at CDK2/Cyclin A2 is more than 30 µM.

For the molecule `CC(C)CC(CC(=O)NC(Cc1ccsc1)C(N)=O)NC(=O)[C@H](CCCNC(=N)N)NC(=O)c1ccc(C=C2CCNCC2)cc1` (stereo partly drawn), the IC50 on CDK2/Cyclin A2 was 9.16 µM; in assay [1], more than 100 µM.

Take `CC(C)CC(CC(=O)N(C)[C@@H](Cc1ccccc1)C(N)=O)NC(=O)[C@H](CCCNC(=N)N)NC(=O)c1ccc(OC2CCNCC2)cc1` (stereo partly drawn): the IC50 was determined as 40.4 µM on CDK2/Cyclin A2 and 31 µM in assay [1].

For `CC(C)CC(CC(=O)NC(Cc1ccsc1)C(N)=O)NC(=O)[C@H](CCCNC(=N)N)NC(=O)c1ccc(CN(C)C2CCCNC2)cc1` (stereo partly drawn), the IC50 on CDK2/Cyclin A2 came to 31 µM; in the assay with U2OS, 153 µM.

With `CCCN1CCN(Cc2ccc(C(=O)N[C@@H](CCCNC(=N)N)C(=O)NC(CC(=O)NC(Cc3ccsc3)C(N)=O)CC(C)C)cc2)[C@@H](C)C1` (stereo partly drawn), the IC50 at CDK2/Cyclin A2 was 22.4 µM; in assay [1] it was 9.36 µM.

Regarding `CC(C)CC(CC(=O)NC(Cc1ccsc1)C(N)=O)NC(=O)[C@H](CCCNC(=N)N)NC(=O)c1ccc(CN2CCNC[C@@H]2C)c(O)c1` (stereo partly drawn), on CDK2/Cyclin A2, the IC50 came to 13.1 µM.

Take `CC(C)CC(CC(=O)NC(Cc1ccsc1)C(N)=O)NC(=O)[C@H](CCCNC(=N)N)NC(=O)c1ccc(CNC2CCNCC2)cc1` (stereo partly drawn): the IC50 at CDK2/Cyclin A2 was more than 100 µM.

Consider `CCOc1cc(C(=O)N[C@@H](CCCNC(=N)N)C(=O)N[C@@H](CC(C)C)C(=O)N[C@H](C(=O)N[C@@H](Cc2ccccc2)C(=O)O)[C@@H](C)CC)ccc1CN1CCNCC1` (HELM PEPTIDE1{[CCOc1cc(C(=O)[*:2])ccc1CN1CCNCC1].R.L.I.F}$$$$V2.0), for which the IC50 at CDK2/Cyclin A2 was 5.95 µM; in assay [1], 5.14 µM.

For `CC[C@H](C)[C@H](NC(=O)[C@H](CC(C)C)NC(=O)[C@H](CCCNC(=N)N)NC(=O)c1ccc(CN2CCN(C)CC2)cc1)C(=O)N[C@@H](Cc1ccccc1)C(=O)O` (HELM PEPTIDE1{[CN1CCN(Cc2ccc(C(=O)[*:2])cc2)CC1].R.L.I.F}$$$$V2.0), the results for the IC50 (at CDK2/Cyclin A2; in assay [1]) were 7.92 µM and 11.3 µM, respectively.

Take `CC[C@H](C)[C@H](NC(=O)[C@H](CC(C)C)NC(=O)[C@H](CCCNC(=N)N)NC(=O)c1ccc(CN2CCNCC2)c(O)c1)C(=O)N[C@@H](Cc1ccccc1)C(=O)O` (HELM PEPTIDE1{[O=C(c1ccc(CN2CCNCC2)c(O)c1)[*:2]].R.L.I.F}$$$$V2.0): the IC50 came out at 4.56 µM at CDK2/Cyclin A2 and 10.4 µM in assay [1].

For `CC[C@H](C)[C@H](NC(=O)[C@H](CC(C)C)NC(=O)[C@H](C)NC(=O)c1ccc(CN2CCNCC2)cc1)C(=O)N[C@@H](Cc1ccccc1)C(=O)O` (HELM PEPTIDE1{[O=C(c1ccc(CN2CCNCC2)cc1)[*:2]].A.L.I.F}$$$$V2.0), the IC50 is more than 100 µM on CDK2/Cyclin A2 and 51.5 µM in assay [1].

For `CC[C@H](C)[C@H](NC(=O)[C@H](CC(C)C)NC(=O)[C@H](CCCNC(=N)N)NC(=O)c1ccc(CN2CCNCC2)cc1)C(=O)N[C@@H](Cc1ccccc1)C(=O)O` (HELM PEPTIDE1{[O=C(c1ccc(CN2CCNCC2)cc1)[*:2]].R.L.I.F}$$$$V2.0), the IC50 on CDK2/Cyclin A2 is 12.9 µM; in assay [1] it was 11.7 µM.

Turning to `CC[C@H](C)[C@H](NC(=O)[C@H](CC(C)C)NC(=O)[C@H](CCCNC(=N)N)NC(=O)c1ccc(N2CCNCC2)cc1)C(=O)N[C@@H](Cc1ccccc1)C(=O)O` (HELM PEPTIDE1{[O=C(c1ccc(N2CCNCC2)cc1)[*:2]].R.L.I.F}$$$$V2.0), the IC50 in assay [1] turned out to be 23.8 µM.
